# From patent US20060188557A1, “Prepartaion for external percutaneous administration containing non-steroidal anti-inflammatory drug and interleukin-1 alpha production inhibitor” (Hisamitsu Pharmaceutical Co., Inc., priority 2003, published 2006)
# Assays:
# [1] = system: auricle of a Balb/c mouse; test: In vivo photosensitivity test (ketoprofen-induced ear thickness increase after UVA); conditions: 20 μL on auricle, 40 J/cm^2 UVA, 24 hours
# Method: The following experiment was conducted with reference to the method of Gerberick et al. (Food Chem. Toxicol., 27, 813-819(1989)) with some modifications. First, ethanol was used to prepare a mixed solution containing the test substances shown in Tables 4 and 5 {tert-butylhydroxyanisole (BHA), di-tert-butylhydroxytoluene […], propyl gallate} and 2% ketoprofen. As a control a 2% ketoprofen solution was prepared using ethanol. Next, 20 μL of each prepared solution (N=8) was applied onto the auricle of a Balb/c mouse (female, 9-11 weeks old), prior to irradiation with 40 J/cm^2 UVA. When 24 hours had passed after UVA irradiation, the ear thickness of the mouse was measured and the increase with respect to the initial ear thickness was calculated. […] The abbreviation “PG” in the tables stands for “propyl gallate”.
# [2] = system: heparin-added rabbit venous blood (whole blood); test: In vitro phototoxicity test (ketoprofen-associated photohemolysis); format: cell-based; conditions: Oryctolagus cuniculus, light or radiation study, with ketoprofen, 7.5 J/cm^2 UVA
# Method: The following experiment was conducted according to “Guidelines for basic biological tests of medical materials and devices”, Part VII “Hemolysis Test”. First, each of the test substances listed in Table I (Example 1), Table 2 (Example 2) and Table 3 (Example 3) {tert-butylhydroxyanisole (BHA), di-tert-butylhydroxytoluene (BHT), thymol, propyl gallate} and ketoprofen were dissolved in N,N-dimethylformamide (DMF) to 20-fold compared to the concentration shown in the tables (1000 μg/mL of ketoprofen). Also, after further diluting these solutions 5-fold in phosphate buffered saline (PBS), equal amounts of each test substance solution and the ketoprofen solution were combined. As a control, ketoprofen alone was dissolved in DMF to […], and diluted 10-fold with PBS to prepare a solution. These solutions were dispensed in 1 mL portions into a 24-well multiwell plate, and then 1 mL of PBS containing 40 μL of heparin-added rabbit venous blood (whole blood) per 5 mL was added to each to prepare reaction solutions.
# An ultraviolet irradiating apparatus (UVP Lamp Fixture, UVP) equipped with two ultraviolet lamps (FL15BLB, Sankyo Denki) was used to irradiate the reaction solutions with 7.5 J/cm^2 UVA (ultraviolet rays of wavelength 320-400 nm) in an incubator set to 37° C., with the cover removed from the plate containing the reaction solutions (UVA is associated with drug-induced photosensitivity). During the ultraviolet irradiation, a 3 mm-thick glass plate was placed between the light source and the reaction solutions to cut ultraviolet rays of 320 nm wavelength and shorter. The incubation time was 60 minutes, including the irradiation time. After completion of the reaction, the solutions were centrifuged, the obtained 100 μL of supernatant (N=3) was transferred to a 96-well assay plate and the absorbance at 540 nm (Abs540) was measured as an index of hemolysis. The effects of each of the test substances in Tables 1 to 3 on ketoprofen-associated photohemolysis were evaluated as the hemolysis inhibition (%) with respect to the control group, calculated using Abs540.
# [3] = system: IL-1α production in HPV16 immobilized human adult keratinocytes (KERTr); test: IL-1α production in ketoprofen-treated, UVA-irradiated keratinocytes (ELISA); format: cell-based; conditions: 75 μM ketoprofen, 6-8 J/cm^2 UVA, 24 hours after irradiation
# Method: After adding a mixed solution of 75 μM ketoprofen and different concentrations of propyl gallate to a culturing medium (EpiLife™ Serum Free Medium E0151) (Cascade Biologics, Inc.) containing HPV16 immobilized human adult keratinocytes (KERTr) KUK001 (ATCC Co., Rockville, Md.), the mixture was incubated for 2 hours at […] in 5% carbon dioxide/95% air, and then irradiated with 6-8 J/cm^2 UVA. When 24 hours had passed after UVA irradiation, the IL-1α concentration of the culture supernatant was evaluated with an ELISA kit (R&D Systems, Inc.). As a control, there was used the above-mentioned culturing medium to which a solution of 75 μM ketoprofen alone was added, which was incubated for 2 hours at 37° C. in 5% carbon dioxide/95% air, and which was not irradiated with UVA.
# An experiment was conducted in the same manner as Example 6 using di-tert-butylhydroxytoluene (BHT) instead of propyl gallate.
# [4] = Synergistic phototoxicity-reducing action of combinations (method not described)
smiles,measurement,setting,value
"COc1ccc(O)cc1C(C)(C)C [BHA, 2-tert-butyl-4-oxyanisole]",Auricular edema inhibition (%),[1]; 0.5% BHA with 2% ketoprofen in ethanol,24%
"Cc1cc(C(C)(C)C)c(O)c(C(C)(C)C)c1 [BHT, 2,6-di-tert-butyl-p-cresol]",hemolysis inhibition at 0.125 µg/mL,"[2]; BHT 0.125 μg/mL, propyl gallate 0",-3.7%
same,hemolysis inhibition at 0.25 µg/mL,"[2]; BHT 0.25 μg/mL, propyl gallate 0",9.6%
same,hemolysis inhibition at 0.5 µg/mL,"[2]; BHT 0.5 μg/mL, propyl gallate 0",49.6%
same,hemolysis inhibition at 1 µg/mL,"[2]; BHT 1 μg/mL, propyl gallate 0",88.9%
same,IL-1α production (IL-1α concentration in the culture supernatant),[3],IL-1α production is inhibited
same,Auricular edema inhibition (%),[1]; 1.0% BHT with 2% ketoprofen in ethanol,16%
"CCCOC(=O)c1cc(O)c(O)c(O)c1 [Propyl gallate, propyl gallate]",hemolysis inhibition at 0.5 µg/mL,"[2]; Table 1: propyl gallate 0.5 μg/mL, BHA 0",25.5%
same,hemolysis inhibition at 1 µg/mL,"[2]; Table 1: propyl gallate 1 μg/mL, BHA 0",66%
same,hemolysis inhibition at 2 µg/mL,"[2]; Table 1: propyl gallate 2 μg/mL, BHA 0",88.9%
same,hemolysis inhibition at 0.5 µg/mL,"[2]; Table 2: propyl gallate 0.5 μg/mL, BHT 0",3.6%
same,hemolysis inhibition at 1 µg/mL,"[2]; Table 2: propyl gallate 1 μg/mL, BHT 0",45.4%
same,hemolysis inhibition at 2 µg/mL,"[2]; Table 2: propyl gallate 2 μg/mL, BHT 0",91.2%
same,hemolysis inhibition at 0.5 µg/mL,"[2]; Table 3: propyl gallate 0.5 μg/mL, thymol 0",2.1%
same,hemolysis inhibition at 1 µg/mL,"[2]; Table 3: propyl gallate 1 μg/mL, thymol 0",63.8%
same,hemolysis inhibition at 2 µg/mL,"[2]; Table 3: propyl gallate 2 μg/mL, thymol 0",88%
same,IL-1α production (IL-1α concentration in the culture supernatant),[3],IL-1α production is inhibited
same,Auricular edema inhibition (%),[1]; Table 4: 0.2% PG with 2% ketoprofen in ethanol,21%
same,Auricular edema inhibition (%),[1]; Table 5: 0.2% PG with 2% ketoprofen in ethanol,19%
"Cc1ccc(C(C)C)c(O)c1 [Thymol, 6-isopropyl-m-cresol]",hemolysis inhibition at 0.5 µg/mL,"[2]; thymol 0.5 μg/mL, propyl gallate 0",10.8%
same,hemolysis inhibition at 1 µg/mL,"[2]; thymol 1 μg/mL, propyl gallate 0",41.1%
same,hemolysis inhibition at 2 µg/mL,"[2]; thymol 2 μg/mL, propyl gallate 0",70.7%
CCCCCCCCC(=O)NCc1ccc(O)c(OC)c1 [nonylic vanillylamide],synergistic effect on the phototoxicity-reducing action,[4],No such synergistic effect is observed
